Data taken from PubChem BioAssay AID2771 (The Scripps Research Institute Molecular Screening Center, 2010).
The source made the active and inactive calls. The rule behind the calls is not given here.

Molecular target: Signal transducer and activator of transcription 3 (Homo sapiens) (UniProt P40763)
Assay: reduction of STAT3-responsive reporter signal – cell-based, luminescence, dose response, counter-screen for STAT1 inhibitor project, late-stage follow-up (AID 2771)
Conditions: STAT3-responsive luciferase reporter cells

IC50 | SMILES
> 55.7 µM (inactive) | Cc1ccc(NC(=O)C(c2ccccc2)N2CCN(S(=O)(=O)c3ccccc3)CC2)cc1 (centres undefined)
> 55.7 µM (inactive) | O=C(c1ccc(-n2c(=S)[nH]c3ccccc3c2=O)cc1)N1CCN(C(=O)c2ccco2)CC1
> 55.7 µM (inactive) | COc1ccc(N2CCN(C(=O)c3ccc(-n4c(=S)[nH]c5ccccc5c4=O)cc3)CC2)cc1
> 55.7 µM (inactive) | O=C(O)c1nn(-c2ccc(F)cc2)c(=O)c2ccccc12
> 55.7 µM (inactive) | O=C(Nc1ccc(F)cc1)C(c1ccccc1)N1CCN(C(=O)c2ccccc2)CC1 (centres undefined)
> 55.7 µM (inactive) | CN1CCN(C(=O)c2ccc(-n3c(=S)[nH]c4ccccc4c3=O)cc2)CC1
> 55.7 µM (inactive) | NC(=O)c1ccc(S(=O)(=O)N2CCN(C(C(=O)Nc3ccc(F)cc3)c3ccccc3)CC2)cc1 (centres undefined)
> 55.7 µM (inactive) | O=C(OCC1CCCCC1)c1nn(-c2ccccc2)c(=O)c2ccccc12
> 55.7 µM (inactive) | CC(=O)c1ccc(S(=O)(=O)N2CCN(C(C(=O)Nc3ccc(C)cc3)c3ccccc3)CC2)cc1 (centres undefined)
> 55.7 µM (inactive) | O=C(c1ccc(-n2c(=S)[nH]c3ccccc3c2=O)cc1)N1CCN(c2ccc(F)cc2)CC1
> 55.7 µM (inactive) | O=C(c1ccc(-n2c(=S)[nH]c3ccccc3c2=O)cc1)N1CCN(c2ccccc2)CC1
> 55.7 µM (inactive) | CCOC(=O)N1CCN(C(=O)c2ccc(-n3c(=S)[nH]c4ccccc4c3=O)cc2)CC1
inactive | C=C1NN(c2ccc(C(=O)N3CCC(Cc4ccccc4)CC3)cc2)C(=O)c2ccccc21
> 55.7 µM (inactive) | O=C(c1ccc(-n2c(=S)[nH]c3ccccc3c2=O)cc1)N1CCN(C2CCCCC2)CC1
> 55.7 µM (inactive) | N#Cc1ccccc1S(=O)(=O)N1CCN(C(C(=O)Nc2ccc(F)cc2)c2ccccc2)CC1 (centres undefined)
> 55.7 µM (inactive) | Cc1ccc(C)c(S(=O)(=O)N2CCN(C(C(=O)Nc3ccc(F)cc3)c3ccccc3)CC2)c1 (centres undefined)
> 55.7 µM (inactive) | O=C(Nc1ccc(F)cc1)C(c1ccccc1)N1CCN(S(=O)(=O)c2ccccc2)CC1 (centres undefined)
> 55.7 µM (inactive) | Cc1ccc(C)c(NC(=O)C(c2ccccc2)N2CCN(S(=O)(=O)c3ccccc3C#N)CC2)c1 (centres undefined)
> 55.7 µM (inactive) | O=C(Nc1ccc(F)cc1)C(c1ccccc1)N1CCN(S(=O)(=O)c2ccc3ccccc3c2)CC1 (centres undefined)
> 55.7 µM (inactive) | CN(Cc1ccccc1N1CCCC1)C(=O)c1nn(-c2ccccc2)c(=O)c2ccccc12

Continued, compound first:

SMILES | IC50
COc1cc2c(cc1OC)C(=O)N(Cc1coc(-c3ccccc3)n1)C(=CN1CCOCC1)N2 | > 55.7 µM (inactive)
CCOc1ccc2oc(=O)cc(CSc3nc4ccccc4c(=O)[nH]3)c2c1 | > 55.7 µM (inactive)
CCOc1ccccc1NC(=O)C(c1ccccc1)N1CCN(S(=O)(=O)c2ccc(F)c(F)c2F)CC1 (centres undefined) | > 55.7 µM (inactive)
CC(C(=O)Nc1ccccc1)N1CCN(S(=O)(=O)c2ccccc2)CC1 (centres undefined) | > 55.7 µM (inactive)
COC(=O)c1nn(-c2ccc(F)cc2)c(=O)c2ccccc12 | > 55.7 µM (inactive)
O=C(Nc1ccc(Cl)c(C(F)(F)F)c1)C(c1ccccc1)N1CCN(S(=O)(=O)c2ccccc2)CC1 (centres undefined) | > 55.7 µM (inactive)
CN(C)C(=O)c1nn(-c2ccc(F)cc2)c(=O)c2ccccc12 | > 55.7 µM (inactive)
COc1cc2c(cc1OC)C(=O)N(Cc1nnc(-c3ccc(Cl)cc3)o1)C(=CN1CCOCC1)N2 | > 55.7 µM (inactive)
Cc1ccc(-n2nc(C(=O)O)c3ccccc3c2=O)cc1Cl | > 55.7 µM (inactive)
CCOC(=O)Nc1ccc2c(CSc3nc4ccccc4c(=O)[nH]3)cc(=O)oc2c1 | > 55.7 µM (inactive)
COc1ccc(C)cc1NC(=O)C(c1ccccc1)N1CCN(S(=O)(=O)c2ccc(F)cc2)CC1 (centres undefined) | > 55.7 µM (inactive)
CCOC(=O)c1ccc(S(=O)(=O)N2CCN(C(C(=O)Nc3ccc(OC)c(Cl)c3)c3ccccc3)CC2)cc1 (centres undefined) | > 55.7 µM (inactive)
CN1CCN(C=C2Nc3ccccc3C(=O)N2Cc2nc(C34CC5CC(CC(C5)C3)C4)cs2)CC1 | > 55.7 µM (inactive)
CCC(C(=O)Nc1ccccc1)N1CCN(S(=O)(=O)c2ccc3c(c2)CCC3)CC1 (centres undefined) | > 55.7 µM (inactive)
CN1CCN(Cc2nc3ccccc3c(=O)n2Cc2nc(-c3ccccc3F)cs2)CC1 | > 55.7 µM (inactive)
CN(C)Cc1nc2ccccc2c(=O)n1Cc1nc(C(C)(C)C)cs1 | > 55.7 µM (inactive)
COc1cccc(-c2csc(Cn3c(CN4CCOCC4)nc4ccccc4c3=O)n2)c1 | > 55.7 µM (inactive)

SMILES | IC50
Cc1cc2oc(=O)cc(CSc3nc4ccccc4c(=O)[nH]3)c2cc1Cl | > 55.7 µM (inactive)
O=C1c2ccccc2N/C(=C\N2CCOCC2)N1Cc1nc(-c2ccc(F)c(F)c2)cs1 | > 18.6 µM (inactive)
COc1cccc(NC(=O)C(c2ccccc2)N2CCN(S(=O)(=O)c3ccc(C)cc3)CC2)c1 (centres undefined) | > 55.7 µM (inactive)
CN1CCN(Cc2nc3ccccc3c(=O)n2Cc2nc(-c3cccc([N+](=O)[O-])c3)cs2)CC1 | > 55.7 µM (inactive)
N#Cc1ccc(S(=O)(=O)N2CCN(C(C(=O)Nc3ccc(F)cc3)c3ccccc3)CC2)cc1 (centres undefined) | > 55.7 µM (inactive)
O=c1cc(CSc2nc3ccccc3c(=O)[nH]2)c2ccc(O)cc2o1 | > 55.7 µM (inactive)
CCC(C)c1ccc(-c2csc(CN3C(=O)c4ccccc4N/C3=C\N3CCN(C)CC3)n2)cc1 (centres undefined) | > 55.7 µM (inactive)
CNC(=O)c1nn(-c2ccc(F)cc2)c(=O)c2ccccc12 | > 55.7 µM (inactive)
CN(C)Cc1nc2ccccc2c(=O)n1Cc1nc(-c2cccc([N+](=O)[O-])c2)cs1 | > 55.7 µM (inactive)
Cc1ccc2oc(=O)cc(CSc3nc(-c4ccccc4)c4ccccc4n3)c2c1 | > 55.7 µM (inactive)
CCOc1ccc(-c2csc(Cn3c(CN4CCN(C)CC4)nc4ccccc4c3=O)n2)cc1 | > 55.7 µM (inactive)
CC(C(=O)Nc1ccc(F)c(F)c1)N1CCN(S(=O)(=O)c2ccc(C(F)(F)F)cc2)CC1 (centres undefined) | > 18.6 µM (inactive)
O=c1c2ccccc2nc(CN2CCOCC2)n1Cc1nc(-c2ccc[nH]2)cs1 | > 55.7 µM (inactive)
Cc1ccc(-n2nc(C(=O)O)c3ccccc3c2=O)cc1C | > 55.7 µM (inactive)
O=C1c2ccccc2N/C(=C\N2CCOCC2)N1Cc1nc(-c2ccccc2F)cs1 | > 55.7 µM (inactive)
COc1cc2c(cc1OC)C(=O)N(Cc1cc(-c3ccccc3OC)no1)C(=CN1CCOCC1)N2 | inactive
O=C(Nc1ccc(F)cc1)C(c1ccccc1)N1CCN(S(=O)(=O)c2ccc3c(c2)OCCO3)CC1 (centres undefined) | > 55.7 µM (inactive)
